Source: patent US20240277658A1, “NLRP3 ACTIVATORS FOR USE IN THE TREATMENT OF INFECTIOUS DISEASES OR CANCER BY ACTIVATING NLRP3 INFLAMMASOME” (ALBERT-LUDWIGS-UNIVERSITÄT FREIBURG, priority 2020, published 2024)
Values joined by “and” are separate entries in the source; they are usually repeats but may differ in a detail not shown here. Identical values can stand only once. Like-named read-outs stand apart in the source and are kept apart here. Values belong to the compound of their own block, whether it stands above or below them.

Experiments:
[1] = test system: BMDCs; test: LDH release (lytic cell death, pyroptosis) from LPS-primed BMDCs; format: cell-based, mouse; details: for cytotoxicity at 25 µM / cytotoxicity at 50 µM / cytotoxicity at 100 µM: Mus musculus, BMDC; for Average (% positive control): LDH release
How it was run: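 Mouse BMDCs (7-9 days differentiated, GM-CSF) primed with 50 ng ml^−1 E. coli K12 LPS for 3 hours, then exposed 3 hours to compounds (50 μM unless indicated) or activators (nigericin 5 μM; R837, CL097 100 μM). Lytic death measured as LDH release by colorimetric assay, triplicate wells.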

[2] = test system: NLRP3; test: Inflammasome stimulation (IL-1β, LDH release) in BMDCs from NLRP3 knockout or ASC knockout mice; format: cell-based, mouse; details: IL-1β and LDH release
Description: (§1) For canonical inflammasome activation BMDCs after 7-9 days of differentiation were harvested and counted with a Neubauer Chamber (Hecht Assistant) and the concentration was set to 1 Mio cells ml^−1. 100 μl cell suspension per well were seeded in 96-well plates. The cells were primed with 50 ng ml^−1 E. coli K12 ultra-pure LPS for 3 hours and subsequently treated with canonical inflammasome activators or experimental compounds for 3 hours if not indicated differently (incubation time FIG. 4D, 5, 7, 8, 11, 13-18: 3 h, FIG. 12: 4 h). Concentrations of the stimuli were as follows if not indicated differently: 5 μM nigericin, 100 μM imiquimod (also known as R837), 100 μM CL097, 100 μM R848, […] poly(dA:dT), 300 μg ml^−1 MSU. If an inhibitor was used before stimuli treatment, the inhibitor was added after 2.5 hours of priming and it was incubated for 30 minutes before inflammasome activation. Inhibitors were used as follows: 3 μM MCC950, 45 mM KCl, 30 μM ebselen (2-Phenyl-1,2-benzoselenazol-3-one), 5 μM cytochalasin D (see FIGS. 8, 11, 12 and 17).
(§2) All inflammasome stimulations were performed in three technical replicates for each condition. Lytic cell death was determined via LDH release (see FIGS. 8, 13-16 and 18), cytokines quantified in cell-free supernatants via ELISA (see FIGS. 4D, 7-9, 11-19) and cell lysates and supernatants analyzed via immunoblotting (see FIGS. 5A and 5B) as previously described in detail (Gross, Olaf, 2012 “Measuring the inflammasome”, Methods in molecular biology, Clifton, N.J., 844, pp. 199-222. Schneider, Katharina S.; Thomas, Christina J.; Groß, Olaf, 2013, “Inflammasome activation and inhibition in primary murine bone marrow-derived cells, and assays for IL-1α, IL-1β, and caspase-1”, Methods in molecular biology, Clifton, N.J., 1040, pp. 117-135).

[3] = molecular target: T1, NLRP3 inflammasome (Mus musculus, UniProt Q8R4B8); test: IL-1β release from LPS-primed BMDCs (ELISA) as readout of NLRP3 inflammasome activation; format: cell-based; details: for Average (% positive control): IL-1β release; for IL-1β: single replicates
T1 construct: endogenous in cells; host or cells: primary mouse bone marrow-derived dendritic cells (BMDCs), LPS-primed
T1 sequence (Q8R4B8 whole entry): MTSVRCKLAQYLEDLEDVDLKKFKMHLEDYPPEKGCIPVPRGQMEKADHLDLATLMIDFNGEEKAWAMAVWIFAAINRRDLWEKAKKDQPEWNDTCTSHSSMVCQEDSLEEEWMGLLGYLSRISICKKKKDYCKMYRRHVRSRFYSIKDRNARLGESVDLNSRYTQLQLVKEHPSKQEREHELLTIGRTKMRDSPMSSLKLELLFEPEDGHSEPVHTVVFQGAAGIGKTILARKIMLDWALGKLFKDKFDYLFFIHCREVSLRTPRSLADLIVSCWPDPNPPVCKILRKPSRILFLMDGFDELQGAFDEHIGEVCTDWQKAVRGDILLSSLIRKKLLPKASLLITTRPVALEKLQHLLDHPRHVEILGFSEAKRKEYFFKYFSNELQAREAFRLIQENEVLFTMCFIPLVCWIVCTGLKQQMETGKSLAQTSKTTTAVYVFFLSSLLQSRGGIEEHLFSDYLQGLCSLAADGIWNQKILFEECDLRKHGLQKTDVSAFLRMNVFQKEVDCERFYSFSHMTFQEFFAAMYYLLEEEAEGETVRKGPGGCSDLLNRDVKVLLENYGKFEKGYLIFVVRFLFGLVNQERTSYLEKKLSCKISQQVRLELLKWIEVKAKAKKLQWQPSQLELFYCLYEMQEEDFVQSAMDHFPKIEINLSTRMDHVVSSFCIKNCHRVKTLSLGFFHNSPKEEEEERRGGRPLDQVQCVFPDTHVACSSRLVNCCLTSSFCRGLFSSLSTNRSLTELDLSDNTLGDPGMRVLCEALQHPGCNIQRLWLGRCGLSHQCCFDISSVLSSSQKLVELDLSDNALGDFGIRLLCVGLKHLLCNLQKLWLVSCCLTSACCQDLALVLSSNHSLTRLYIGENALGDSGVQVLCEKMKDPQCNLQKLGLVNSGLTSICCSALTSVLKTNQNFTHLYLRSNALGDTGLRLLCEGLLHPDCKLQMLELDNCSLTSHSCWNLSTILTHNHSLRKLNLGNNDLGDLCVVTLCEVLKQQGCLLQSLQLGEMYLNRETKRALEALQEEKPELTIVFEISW
How it was run: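 NLRP3 inflammasome activation was read out as IL-1β released into the supernatant, measured by ELISA. Murine BMDCs were primed with LPS (50 ng ml^−1, 3 hours), then incubated with compounds for 3 hours, with each condition run in three technical replicates. Nigericin at 5 μM acted as the positive control activator, and IL-1β release was also expressed as a percentage of that control.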

[4] = molecular target: T1, NLRP3 inflammasome; test: Inflammasome stimulation of BMDCs after pre-incubation with inhibitors (MCC950, KCl, ebselen, cytochalasin D); format: cell-based; details: 50 mM extracellular KCl; FIGS. 11 and 17
Description: as §1, with “Inhibitors were used as follows: 3 μM MCC950, 45 mM KCl, 30 μM ebselen (2-Phenyl-1,2-benzoselenazol-3-one), 5 μM cytochalasin D (see FIGS. 8, 11, 12 and 17).” left out
as §2

[5] = test system: mitochondrial respiration; details: Groß et al., Immunity 2016; cited from earlier work
[6] = test system: TLR7/TLR8; details: background statement; cited from earlier work
[7] = section 1.2, 25 μM, positive control EN22 25 μM
[8] = section 1.2, 50 μM, positive control EN22 25 μM
[9] = section 1.2, 100 μM, positive control EN22 25 μM
[10] = 100 μM, positive control nigericin 5 μM

Average IL-1β ([3]; section 1.2, 25 μM): 4.696 ng/mL | Average IL-1β ([3]; section 1.2, 50 μM): 5.026 ng/mL | Average IL-1β ([3]; section 1.2, 100 μM): 5.084 ng/mL | Average (% positive control) [3, 7]: 93.430 % positive control | Average (% positive control) [3, 8]: 100.007 % positive control | Average (% positive control) [3, 9]: 101.159 % positive control | dependence of NLRP3 inflammasome activation on potassium efflux from the cell [4]: independently of potassium efflux
Compound: O=C(Nc1ccc2ncccc2c1)Nc1ccc2ncccc2c1 [EN-A, 1,3-di(quinolin-6-yl)urea]
cytotoxicity at 25 µM ([1]; section 1.2, 25 μM, read-out: Average LDH release (% of max.)): 33.1% | cytotoxicity at 50 µM ([1]; section 1.2, 50 μM, read-out: Average LDH release (% of max.)): 32.4% | cytotoxicity at 100 µM ([1]; section 1.2, 100 μM, read-out: Average LDH release (% of max.)): 33% | cytotoxicity at 25 µM ([1]; section 1.2, single replicates, 25 μM, read-out: LDH release (% of max.)): 33.7% | cytotoxicity at 50 µM ([1]; section 1.2, single replicates, 50 μM, read-out: LDH release (% of max.)): 32.1% | cytotoxicity at 100 µM ([1]; section 1.2, single replicates, 100 μM, read-out: LDH release (% of max.)): 34.8% | Average (% positive control) [1, 7]: 110.581 % positive control | Average (% positive control) [1, 8]: 108.112 % positive control | Average (% positive control) [1, 9]: 110.157 % positive control | characteristics of inflammasome activation in cells isolated from NLRP3 knockout mice [2]: do not occur | IL-1β ([3]; section 1.2, 25 μM): 5.256 ng/mL and 4.576 ng/mL and 4.256 ng/mL | IL-1β ([3]; section 1.2, 50 μM): 4.819 ng/mL and 5.538 ng/mL and 4.722 ng/mL | IL-1β ([3]; section 1.2, 100 μM): 5.256 ng/mL and 5.328 ng/mL and 4.669 ng/mL

Average IL-1β ([3]; 100 μM, LPS-primed BMDCs): 2.376 ng/mL | Average (% positive control) [3, 10]: 33.144 % positive control
Compound: CC(C)Cn1cnc2c(N)nc3ccccc3c21 [imiquimod, reference compound]
Average (% positive control) [1, 10]: 35.494 % positive control | cytotoxicity at 100 µM ([1]; 100 μM, LPS-primed BMDCs, read-out: Average LDH release (% of max.)): 26% | inhibition of cellular respiration (mitochondrial electron transport chain) [5]: inhibit cellular respiration | IL-1β ([3]; 100 μM, LPS-primed BMDCs, listed as R837): 5.472 ng/mL and 4.151 ng/mL and 1.552 ng/mL and 1.212 ng/mL and 0.958 ng/mL and 0.911 ng/mL | activation of toll-like receptor-7 (TLR7) and/or TLR8 [6]: activate

Compound: CCOCc1nc2c([nH]1)c(N)nc1ccccc12 [CL097, reference compound]
Average LDH release (% of max.) ([1]; 100 μM, LPS-primed BMDCs): 68.096 % of max. | Average (% positive control) [1, 10]: 93.083 % positive control | LDH release (% of max.) ([1]; single replicates, 100 μM, LPS-primed BMDCs): 56.511 % of max. and 69.145 % of max. and 62.611 % of max. and 76.051 % of max. and 68.018 % of max. and 76.242 % of max. | inhibition of cellular respiration (mitochondrial electron transport chain) [5]: inhibit cellular respiration | Average IL-1β ([3]; 100 μM, LPS-primed BMDCs): 8.570 ng/mL | Average (% positive control) [3, 10]: 119.560 % positive control | IL-1β ([3]; 100 μM, LPS-primed BMDCs): 7.355 ng/mL and 8.020 ng/mL and 8.660 ng/mL and 8.522 ng/mL and 9.540 ng/mL and 9.324 ng/mL | activation of toll-like receptor-7 (TLR7) and/or TLR8 [6]: activate
